Measured values taken from patent US6191282A, “Substituted 5-membered ring heterocycles comprising a bicyclic or tricyclic group their preparation and their use” (Hoechst Marion Roussel, priority 1993, dated 2001).
Where two headings read alike, the source gives them in different places.

System: gel-filtered human thrombocytes
Assay: Inhibition of the aggregation of gel-filtered human thrombocytes following stimulation with ADP or thrombin (Test method 1)
Format: cell-based
Conditions: Homo sapiens, 1 mg/ml fibrinogen, 37° C., GFP from 2-4 donors
Protocol: As a functional test, measurement is made of the inhibition of the aggregation of gel-filtered human thrombocytes, following stimulation with ADP or thrombin, by the compounds according to the invention.
For this purpose, human thrombocytes were isolated from platelet-rich plasma (PRP) by gel filtration on Sepharose 2 B. The resulting suspension of gel-filtered platelets (GFP), which contained 3×10^8 platelets/ml, was activated in the presence of 1 mg/ml of fibrinogen either with 10 μM ADP or with 0.1 U/ml thrombin, and stirred in an aggregometer (PAP 4, Biodata, Hatboro, Penna., USA) at 37° C. and at 1000 revolutions per minute. The maximum increase in the translucency is taken as a measure of the aggregation. The test substances were added to the GFP at 37° C. and 2 min before activating with ADP or thrombin.

[1] = ADP-stimulated (10 μM ADP), read-out: IC50, inhibition of thrombocyte aggregation, ADP-stimulated
[2] = Thrombin-stimulated (0.1 U/ml thrombin), read-out: IC50, inhibition of thrombocyte aggregation, Thrombin-stimulated

Row | SMILES | IC50 [1] [µM] | IC50 [2] [µM]
1 | CCCCCC(=O)NC(CNC(=O)CN1C(=O)NC(C)(c2ccc(C(=N)N)cc2)C1=O)C(=O)O (racemic) [Example 30, (R,S)-3-(((R,S)-4-(4-(Aminoiminomethyl)phenyl)-4-methyl-2,5-dioxoimidazolidin-1-yl)acetylamino)-2-pentylcarbonylaminopropionic acid] | 0.5 | 0.4
2 | CCCCCC(=O)NC(CNC(=O)CN1C(=O)N(C)C(C)(c2ccc(C(=N)N)cc2)C1=O)C(=O)O (racemic) [Example 31, (R,S)-3-(((R,S)-4-(4-(Aminoiminomethyl)phenyl)-3,4-dimethyl-2,5-dioxoimidazolidin-1-yl)acetylamino)-2-pentylcarbonylaminopropionic acid] | 3 | 0.6
3 | CCCCS(=O)(=O)NC(CNC(=O)CN1C(=O)NC(C)(c2ccc(C(=N)N)cc2)C1=O)C(=O)O (racemic) [Example 32, (R,S)-3-(((R,S)-4-(4-(Aminoiminomethyl)phenyl)-4-methyl-2,5-dioxoimidazolidin-1-yl)acetylamino)-2-butylsulphonylaminopropionic acid] | 0.2 | 0.15
4 | CCCCS(=O)(=O)NC(CNC(=O)CN1C(=O)N(C)C(C)(c2ccc(C(=N)N)cc2)C1=O)C(=O)O (racemic) [Example 33, (R,S)-3-(((R,S)-4-(4-(Aminoiminomethyl)phenyl)-3,4-dimethyl-2,5-dioxoimidazolidin-1-yl)acetylamino)-2-butylsulphonylaminopropionic acid] | 0.5 | 0.2
5 | CC1(c2ccc(C(=N)N)cc2)NC(=O)N(CC(=O)NC(CS(=O)(=O)NC(=O)Nc2ccccc2)C(=O)OCc2ccccc2)C1=O (racemic) [Example 34, 2-((R,S)-4-(4-Aminoiminomethyl)phenyl)-4-methyl-2,5-dioxoimidazolidin-1-yl)-N-((R,S)-1-benzyloxycarbonyl-2-(3-phenylureidosulphonyl)ethyl)acetamide] | 2.5 | 1.5
6 | COc1ccc(C(CC(=O)O)NC(=O)CN2C(=O)NC(C)(c3ccc(C(=N)N)cc3)C2=O)cc1O (racemic) [Example 35, (R,S)-3-(((R,S)-4-(4-(Aminoiminomethyl)phenyl)-4-methyl-2,5-dioxoimidazolidin-1-yl)acetylamino)-3-(3-hydroxy-4-methoxyphenyl)propionic acid] | 0.1 | 0.3
7 | COc1cc(C(CC(=O)O)NC(=O)CN2C(=O)NC(C)(c3ccc(C(=N)N)cc3)C2=O)ccc1O (racemic) [Example 36, (R,S)-3-(((R,S)-4-(4-(Aminoiminomethyl)phenyl)-4-methyl-2,5-dioxoimidazolidin-1-yl)acetylamino)-3-(4-hydroxy-3-methoxyphenyl)propionic acid] | 0.2 | 0.15
8 | CCOc1ccc(C(CC(=O)O)NC(=O)CN2C(=O)NC(C)(c3ccc(C(=N)N)cc3)C2=O)cc1 (racemic) [Example 37, (R,S)-3-(((R,S)-4-(4-(Aminoiminomethyl)phenyl)-4-methyl-2,5-dioxoimidazolidin-1-yl)acetylamino)-3-(4-ethoxyphenyl)propionic acid] | 0.1 | 0.2
9 | CC1(c2ccc(C(=N)N)cc2)NC(=O)N(CC(=O)NC(CC(=O)O)c2cccc3ccccc23)C1=O (racemic) [Example 38, (R,S)-3-(((R,S)-4-(4-(Aminoiminomethyl)phenyl)-4-methyl-2,5-dioxoimidazolidin-1-yl)acetylamino)-3-(1-naphthyl)propionic acid] | 0.3 | 0.35
10 | CC1(c2ccc(C(=N)N)cc2)NC(=O)N(CC(=O)NC(CC(=O)O)c2cccc(OCc3ccccc3)c2)C1=O (racemic) [Example 41, (R,S)-3-(((R,S)-4-(4-(Aminoiminomethyl)phenyl)-4-methyl-2,5-dioxoimidazolidin-1-yl)acetylamino)-3-(3-benzyloxyphenyl)propionic acid] | 0.1 | 0.15
